# Earlier results as cited in PMC7357848 (Journal of Chemical Information and Modeling, 2020).
# System: hERG
# Conditions: IC50 with SP over IC50 with Protocol-O; ref 5 (Yao et al. 2005)
substance,measurement,value
BeKm-1,IC50 ratio,10.3
